{"source": "the supplement of paper PMC10307832", "assay_in_all_cases": "relative viability (nuclei count vs DMSO), 5 days (fraction); higher = more cells survive", "key": {"[1]": {"compound": "Cc1ccc(F)c(NC(=O)Nc2ccc(-c3cccc4[nH]nc(N)c34)cc2)c1 [Linifanib] + CC(C)C[C@H](NC(=O)[C@H](Cc1ccccc1)NC(=O)c1cnccn1)B(O)O [Bortezomib] (partner 0.002 µM)", "method_in_brief": "(§1)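 After 5 days of treatment, lung cancer cells in 1536-well plates were fixed and stained in a single step (final 0.05% Triton X-100, 1% formaldehyde, 1 ug/ml Hoechst) and their nuclei counted on 4× images. Treatment had been applied by pin tool the day after seeding as one drug alone or as a fixed anchor-drug dose with five library-drug doses (not always all listed) in √10 steps. Relative viability is the nuclei count of treated wells divided by that of vehicle wells, and values are medians of duplicate plates.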"}, "[2]": {"compound": "Cc1ccc(F)c(NC(=O)Nc2ccc(-c3cccc4[nH]nc(N)c34)cc2)c1 [Linifanib] + CC1(C)CCC(c2ccc(Cl)cc2)=C(CN2CCN(c3ccc(C(=O)NS(=O)(=O)c4ccc(N[C@H](CCN5CCOCC5)CSc5ccccc5)c(S(=O)(=O)C(F)(F)F)c4)cc3)CC2)C1 [Navitoclax] (partner 0.5 µM)", "method_in_brief": "as §1"}, "[3]": {"compound": "Cc1ccc(F)c(NC(=O)Nc2ccc(-c3cccc4[nH]nc(N)c34)cc2)c1 [Linifanib] + NC(=O)Nc1cc(-c2cccc(F)c2)sc1C(=O)N[C@H]1CCCNC1 [AZD7762] (partner 0.2 µM)", "method_in_brief": "as §1"}, "[4]": {"compound": "Cc1ccc(F)c(NC(=O)Nc2ccc(-c3cccc4[nH]nc(N)c34)cc2)c1 [Linifanib] + Nc1ncn([C@H]2C[C@H](O)[C@@H](CO)O2)c(=O)n1 [Decitabine] (partner 2 µM)", "method_in_brief": "as §1"}, "[5]": {"compound": "Cc1ccc(F)c(NC(=O)Nc2ccc(-c3cccc4[nH]nc(N)c34)cc2)c1 [Linifanib] + O=C(CCCCCCC(=O)Nc1ccccc1)NO [Vorinostat] (partner 1 µM)", "method_in_brief": "as §1"}, "[6]": {"compound": "Cc1ccc(F)c(NC(=O)Nc2ccc(-c3cccc4[nH]nc(N)c34)cc2)c1 [Linifanib] + O=C(c1cc(Cc2n[nH]c(=O)c3ccccc23)ccc1F)N1CCN(C(=O)C2CC2)CC1 [Olaparib] (partner 8 µM)", "method_in_brief": "as §1"}}, "data": [{"cell line": "RERF-LC-KJ", "values": [{"measurement": "relative viability", "setting": "[1]; first compound 0.03162 µM", "result": 1.25}, {"measurement": "relative viability", "setting": "[1]; first compound 0.1 µM", "result": 1.22}, {"measurement": "relative viability", "setting": "[1]; first compound 0.3162 µM", "result": 0.991}, {"measurement": "relative viability", "setting": "[2]; first compound 0.03162 µM", "result": 1.12}, {"measurement": "relative viability", "setting": "[2]; first compound 0.1 µM", "result": 1.02}, {"measurement": "relative viability", "setting": "[2]; first compound 0.3162 µM", "result": 0.994}, {"measurement": "relative viability", "setting": "[3]; first compound 0.03162 µM", "result": 1.03}, {"measurement": "relative viability", "setting": "[3]; first compound 0.1 µM", "result": 1.01}, {"measurement": "relative viability", "setting": "[3]; first compound 0.3162 µM", "result": 0.938}, {"measurement": "relative viability", "setting": "[4]; first compound 0.03162 µM", "result": 0.707}, {"measurement": "relative viability", "setting": "[4]; first compound 0.1 µM", "result": 0.651}, {"measurement": "relative viability", "setting": "[4]; first compound 0.3162 µM", "result": 0.717}, {"measurement": "relative viability", "setting": "[5]; first compound 0.03162 µM", "result": 0.737}, {"measurement": "relative viability", "setting": "[5]; first compound 0.1 µM", "result": 0.804}, {"measurement": "relative viability", "setting": "[5]; first compound 0.3162 µM", "result": 0.727}, {"measurement": "relative viability", "setting": "[6]; first compound 0.03162 µM", "result": 0.875}, {"measurement": "relative viability", "setting": "[6]; first compound 0.1 µM", "result": 1.08}, {"measurement": "relative viability", "setting": "[6]; first compound 0.3162 µM", "result": 0.892}]}]}
